Test results: patent US20220047559A1, “DRUG COMPOSITION FOR TREATING BREAST CANCER AND METHOD FOR MANUFACTURING THE SAME” (National Chiao Tung University, priority 2020, published 2022)

Tests used:
[1] = Release of drugs from dialysis bag in pH 7.4 PBS buffer solution; assay type: physicochemical; settings: 37° C.
Method: FIG. 3A and FIG. 3B show the release curves of ganetespib. FIG. 3C and FIG. 3D show the release curves of curcumin For free ganetespib, the dialysis bag stops release after 8 hours, and about 73% ganetespib is released. For ganetespib in the drug composition, the dialysis bag continues release until as long as 12 hours has elapsed, and about 80% ganetespib is released. As indicated by the arrows in FIG. 3B, CHC/GAN where ganetespib is encapsulated by CHC releases ganetespib more slowly and has higher content of ganetespib. It is because CHC protects ganetespib from being damaged by the environment and makes ganetespib release slowly. For free curcumin, although the dialysis bag have continued releasing curcumin for as long as 168 hours, the accumulated released curcumin is only about 8%. The slow release rate of free curcumin is owing to low aqueous solubility of curcumin Low aqueous solubility of curcumin also leads to low bioavailability of curcumin. The release rate of the curcumin in CHC/CCM is about the same as the free curcumin. The accumulated released curcumin of the curcumin in CHC/CCM is about 9%, slightly higher than that of the free curcumin. However, it can be seen in FIG. 3D: the difference therebetween increases with time.

SK-BR-3 cells = experiment: Cytotoxicity test (MTS, cell survival rate, IC50, combination index); assay type: cell-based; settings: Homo sapiens, 48 hours
Method: Culture SK-BR-3 cells in a 24-well culture plate, and each well has 10^4 cells. After cells have attached to the culture plate for 20-24 hours, remove the culture liquid, and rinse the cells with PBS. Use Dulbecco's Modified Eagle Medium (DMEM) to dilute the drug compositions GAN, CCM, CHC/GAN, CHC/CCM, and CHC/GAN-CCM. Add the diluted drug compositions to the cells, and co-culture each drug composition and the cells for 48 hours. Remove DMEM, and flush the product of co-culture with PBS. Add MTS and DMEM (1:5 (v/v)) into each well of the cell culture plate, and culture them for 2-4 hours. Use a microplate reader to measure the absorptivity of the light having a wavelength of 490 nm, whereby to estimate the cell survival rates. The cell survival rate can be used to determine the half inhibitory concentration (IC50) and the combination index (CI) of two drugs. CHC/GAN and CHC/CCM can more effectively kill cells than the drugs in form of free molecules. […] Therefore, the drug composition carried by CHC nanoparticles can more effectively treat breast cancer in smaller dosage. Especially, while ganetespib is carried by CHC nanocarriers, the treating effect may be increased 60-70 times. […] The results also indicate that the effective concentration of the drug composition of the present invention may be lower than that of the conventional drug composition. […]

Compound | time after which release of ganetespib stops [1] [h] | ganetespib released ([1]; at the time release stops) | IC50 (SK-BR-3 cells; ganetespib) [µg/mL] | accumulated released curcumin ([1]; 168 hours) | IC50 (SK-BR-3 cells; curcumin) [µg/mL]
CC(C)c1cc(-c2n[nH]c(=O)n2-c2ccc3c(ccn3C)c2)c(O)cc1O [GAN, ganetespib] | 8 | about 73% | 0.00188 | – | –
COc1cc(/C=C/C(=O)CC(=O)/C=C/c2ccc(O)c(OC)c2)ccc1O [CCM, curcumin] | – | – | – | about 8% | 12
